Marks after values point to notes of the source that are not given here.
test system: Fusarium; experiment: not given; settings: literature reports; cited from earlier work

Row | SMILES | Fusarium reduction from seeds
1 | OCl [hypochlorite] | ≤ 50%

test system: Alternaria spp.; experiment: not given; assay type: cell-based; settings: barley var. Lacey; 2 min. disinfestations

Row | SMILES | % of Alternaria spp.
2 | OCl [Hypochlorite 0.8%, hypochlorite] | 66%

same assay, conditions: barley var. Lacey; 3 min. disinfestations

Row | SMILES | % of Alternaria spp.
3 | OCl [Hypochlorite 0.8%, hypochlorite] | 68%

test system: not given; experiment: not given; settings: wheat seeds; 1% concentration; cited from earlier work

Row | SMILES | increase of the level of the toxin (DON) | level of the toxin (DON) after treatment
4 | OCl [sodium hypochlorite] | 24% | 1.24 ppm

test system: bacteria; experiment: not given; assay type: cell-based; settings: not given

Row | SMILES | Bacteria (%) | % Bacteria
5 | CC(=O)OO [Ac. Perac. 0.25%, peracetic acid] | 62% | 
6 | [K+].[OH-] [KOH (0.25%), potassium hydroxide] |  | 82%
7 | O=C([O-])O.[Na+] [NaHCO3 (0.5%), sodium bicarbonate] |  | 84%
8 | [K+].[OH-] [KOH (0.5%), potassium hydroxide] |  | 44%
9 | OCl [Hypochlorite 0.8%, hypochlorite] | 2% | 0%
10 | [Na+].[OH-] [NaOH 1.0%, sodium hydroxide] | 6% | 
11 | CCOC(C)=O [Eth. Ac. 10%, Ethyl Acetate] | 4% | 
12 | [Na+].[OH-] [NaOH 0.25%, sodium hydroxide] | 80% | 44%
13 | OO [H2O2 3.0%, peroxide] | 62% | 
14 | [Cl-].[Na+] [Salt 5%, NaCl] | 78% | 
15 | CCOC(C)=O [Eth. Ac. 1%, Ethyl Acetate] | 90% | 
16 | CC(=O)OO [Ac. Perac. 1.0%, peracetic acid] | 4% | 
17 | CC(=O)OO [Ac. Perac. 0.5%, peracetic acid] | 28% | 
18 | [Cl-].[Na+] [Salt 1%, NaCl] | 76% | 
19 | O=P([O-])([O-])O.[Na+].[Na+] [Na2HPO4 (0.5%), sodium phosphate dibasic] |  | 72%
20 | [Na+].[OH-] [NaOH 0.1%, sodium hydroxide] | 74% | 
21 | OO [H2O2 1.0%, peroxide] | 47% | 
22 | CC(=O)OO [Ac. Perac. 2.0%, peracetic acid] | 0% | 
23 | [Na+].[OH-] [NaOH 0.5%, sodium hydroxide] | 50% | 8%
24 | CC(=O)O [Ac. Ac. Glacial 1.0, glacial acetic acid] | 0% | 
25 | CC(=O)OO [Ac. Perac. 0.1%, peracetic acid] | 48% | 
26 | CCO [Alco. 10%, Alcohol] | 100% | 
27 | O=C([O-])O.[Na+] [NaHCO3 (0.25%), sodium bicarbonate] |  | 70%
28 | CC(=O)O [Ac. Ac. Glacial 0.25%, glacial acetic acid] | 6% | 
29 | CC(=O)O [Ac. Ac. Glacial 0.5, glacial acetic acid] | 2% | 
30 | CCO [Alco. 1%, Alcohol] | 94% | 
31 | O=P([O-])([O-])O.[Na+].[Na+] [Na2HPO4 (0.25%), sodium phosphate dibasic] |  | 68%

test system: not listed separately; experiment: DON variation during the malting process; settings: 1. After the first steeping; seeds with 3.2 ppm DON
Experimental: The goal of this experiment was to follow the main steps of malt production for DON increase or decrease when barley seeds were submitted to the hypochlorite process during the first steeping, compared with the same seed not submitted to the hypochlorite process. Two samples of 1000 grams of barley seeds infected with 3.2 ppm of DON were malted and their DON contents were measured during the following steps:
1. On 50 grams of seeds just after the first steeping (7 hours steep)
2. On 50 grams of seeds just after the second steeping (5 hours steep)
3. On 50 grams of seeds on the second day of malting (half malting)
4. On 50 grams of seeds on the fourth day of malting (end of malting)
5. On 50 grams of seeds after the fist step of kilning (6 hours at 45° C.)
6. On 50 grams of seeds after the second step of kilning (3 hours at 65° C.)
7. On 50 grams of seeds after the third step of kilning (2 hours at 85° C.)
8. Control (dry seeds without treatment).

Row | SMILES | DON levels on "H" process (b)
32 | OCl [hypochlorite] | 0.7 ppm

same assay, conditions: 2. After the second steeping

Row | SMILES | DON levels on "H" process (b)
33 | OCl [hypochlorite] | 0.4 ppm

same assay, conditions: 3. Second day of malting

Row | SMILES | DON levels on "H" process (b)
34 | OCl [hypochlorite] | 0.4 ppm

same assay, conditions: 4. Fourth day of malting

Row | SMILES | DON levels on "H" process (b)
35 | OCl [hypochlorite] | 0.4 ppm

same assay, conditions: 5. Fist step of kilning

Row | SMILES | DON levels on "H" process (b)
36 | OCl [hypochlorite] | 0.3 ppm

same assay, conditions: 6. Second step of kilning

Row | SMILES | DON levels on "H" process (b)
37 | OCl [hypochlorite] | 0.3 ppm

same assay, conditions: 7. Third step of kilning

Row | SMILES | DON levels on "H" process (b)
38 | OCl [hypochlorite] | 0.4 ppm

same assay, conditions: H process; 1. After the first steeping

Row | SMILES | % DON reduction
39 | OCl [hypochlorite] | 78.1%

same assay, conditions: H process; 2. After the second steeping

Row | SMILES | % DON reduction
40 | OCl [hypochlorite] | 87.5%

same assay, conditions: H process; 3. Second day of malting

Row | SMILES | % DON reduction
41 | OCl [hypochlorite] | 87.5%

same assay, conditions: H process; 4. Fourth day of malting

Row | SMILES | % DON reduction
42 | OCl [hypochlorite] | 87.5%

same assay, conditions: H process; 5. Fist step of kilning

Row | SMILES | % DON reduction
43 | OCl [hypochlorite] | 90.6%

same assay, conditions: H process; 6. Second step of kilning

Row | SMILES | % DON reduction
44 | OCl [hypochlorite] | 90.6%

same assay, conditions: H process; 7. Third step of kilning

Row | SMILES | % DON reduction
45 | OCl [hypochlorite] | 87.5%

test system: not given; experiment: not given; settings: Table 3; 8 hours steeping

Row | SMILES | Total % of DON reduction
46 | CCOC(C)=O [Eth. Ac. 10%, Ethyl Acetate] | 70%
47 | [Cl-].[Na+] [Salt 5%, NaCl] | 77%
48 | CCOC(C)=O [Eth. Ac. 1%, Ethyl Acetate] | 68%
49 | [Cl-].[Na+] [Salt 1%, NaCl] | 71%

same assay, conditions: Table 3; 8 hours steeping; dry seeds 10.9

Row | SMILES | DON
50 | CCOC(C)=O [Eth. Ac. 10%, Ethyl Acetate] | 3.3 µg/mL
51 | [Cl-].[Na+] [Salt 5%, NaCl] | 2.5 µg/mL
52 | CCOC(C)=O [Eth. Ac. 1%, Ethyl Acetate] | 3.5 µg/mL
53 | [Cl-].[Na+] [Salt 1%, NaCl] | 3.1 µg/mL

same assay, conditions: Table 4; 8 hours steeping

Row | SMILES | Total % of DON reduction
54 | OCl [Hypochlorite 0.8%, hypochlorite] | 87.6%
55 | CC(=O)O [Ac. Ac. Glacial 1.0, glacial acetic acid] | 71.1%
56 | CC(=O)O [Ac. Ac. Glacial 0.25%, glacial acetic acid] | 71.1%
57 | CC(=O)O [Ac. Ac. Glacial 0.5, glacial acetic acid] | 62.9%

same assay, conditions: Table 4; 8 hours steeping; dry seeds 9.7

Row | SMILES | DON
58 | OCl [Hypochlorite 0.8%, hypochlorite] | 1.2 µg/mL
59 | CC(=O)O [Ac. Ac. Glacial 1.0, glacial acetic acid] | 2.8 µg/mL
60 | CC(=O)O [Ac. Ac. Glacial 0.25%, glacial acetic acid] | 2.8 µg/mL
61 | CC(=O)O [Ac. Ac. Glacial 0.5, glacial acetic acid] | 3.6 µg/mL

test system: Fusarium graminearum; experiment: not given; assay type: cell-based; settings: not given

Row | SMILES | Fusarium (%) | % Fusarium
62 | CC(=O)OO [Ac. Perac. 0.25%, peracetic acid] | 2% | 
63 | [K+].[OH-] [KOH (0.25%), potassium hydroxide] |  | 76%
64 | [K+].[OH-] [KOH (0.5%), potassium hydroxide] |  | 44%
65 | [Na+].[OH-] [NaOH 1.0%, sodium hydroxide] | 2% | 
66 | [Na+].[OH-] [NaOH 0.25%, sodium hydroxide] | 88% | 44%
67 | OO [H2O2 3.0%, peroxide] | 20% | 
68 | CC(=O)OO [Ac. Perac. 1.0%, peracetic acid] | 4% | 
69 | CC(=O)OO [Ac. Perac. 0.5%, peracetic acid] | 4% | 
70 | [Na+].[OH-] [NaOH 0.1%, sodium hydroxide] | 76% | 
71 | OO [H2O2 1.0%, peroxide] | 38% | 
72 | CC(=O)OO [Ac. Perac. 2.0%, peracetic acid] | 2% | 
73 | [Na+].[OH-] [NaOH 0.5%, sodium hydroxide] | 68% | 40%
74 | CC(=O)OO [Ac. Perac. 0.1%, peracetic acid] | 56% | 
75 | CCO [Alco. 10%, Alcohol] | 44* % | 
76 | CCO [Alco. 1%, Alcohol] | 94% | 

same assay, conditions: Table 3; 8 hours steeping

Row | SMILES | Fusarium (%)
77 | CCOC(C)=O [Eth. Ac. 10%, Ethyl Acetate] | 0%
78 | [Cl-].[Na+] [Salt 5%, NaCl] | 84%
79 | CCOC(C)=O [Eth. Ac. 1%, Ethyl Acetate] | 88%
80 | [Cl-].[Na+] [Salt 1%, NaCl] | 90%

same assay, conditions: Table 4; 8 hours steeping

Row | SMILES | Fusarium (%)
81 | OCl [Hypochlorite 0.8%, hypochlorite] | 2%
82 | CC(=O)O [Ac. Ac. Glacial 1.0, glacial acetic acid] | 2%
83 | CC(=O)O [Ac. Ac. Glacial 0.25%, glacial acetic acid] | 2%
84 | CC(=O)O [Ac. Ac. Glacial 0.5, glacial acetic acid] | 4%

same assay, conditions: Table 6; means of 50 seeds plated in ¼ PDA medium

Row | SMILES | % Fusarium
85 | O=C([O-])O.[Na+] [NaHCO3 (0.5%), sodium bicarbonate] | 72%
86 | OCl [Hypochlorite 0.8%, hypochlorite] | 8%
87 | O=P([O-])([O-])O.[Na+].[Na+] [Na2HPO4 (0.5%), sodium phosphate dibasic] | 70%
88 | O=C([O-])O.[Na+] [NaHCO3 (0.25%), sodium bicarbonate] | 52%
89 | O=P([O-])([O-])O.[Na+].[Na+] [Na2HPO4 (0.25%), sodium phosphate dibasic] | 68%

same assay, conditions: barley var. Lacey; 2 min. disinfestations

Row | SMILES | % of Fusarium graminearum
90 | OCl [Hypochlorite 0.8%, hypochlorite] | 20%

same assay, conditions: barley var. Lacey; 3 min. disinfestations

Row | SMILES | % of Fusarium graminearum
91 | OCl [Hypochlorite 0.8%, hypochlorite] | 18%

test system: barley seeds; experiment: not given; settings: in vivo

Row | SMILES | Germin. (%) | % Germination
92 | CC(=O)OO [Ac. Perac. 0.25%, peracetic acid] | 76% | 
93 | [K+].[OH-] [KOH (0.25%), potassium hydroxide] |  | 94%
94 | O=C([O-])O.[Na+] [NaHCO3 (0.5%), sodium bicarbonate] |  | 88%
95 | [K+].[OH-] [KOH (0.5%), potassium hydroxide] |  | 96%
96 | OCl [Hypochlorite 0.8%, hypochlorite] | 80% | 88%
97 | [Na+].[OH-] [NaOH 1.0%, sodium hydroxide] | 66% | 
98 | CCOC(C)=O [Eth. Ac. 10%, Ethyl Acetate] | 0% | 
99 | [Na+].[OH-] [NaOH 0.25%, sodium hydroxide] | 96% | 94%
100 | OO [H2O2 3.0%, peroxide] | 92% | 
101 | [Cl-].[Na+] [Salt 5%, NaCl] | 80% | 
102 | CCOC(C)=O [Eth. Ac. 1%, Ethyl Acetate] | 6% | 
103 | CC(=O)OO [Ac. Perac. 1.0%, peracetic acid] | 0% | 
104 | CC(=O)OO [Ac. Perac. 0.5%, peracetic acid] | 28% | 
105 | [Cl-].[Na+] [Salt 1%, NaCl] | 72% | 
106 | O=P([O-])([O-])O.[Na+].[Na+] [Na2HPO4 (0.5%), sodium phosphate dibasic] |  | 94%
107 | [Na+].[OH-] [NaOH 0.1%, sodium hydroxide] | 76% | 
108 | OO [H2O2 1.0%, peroxide] | 94% | 
109 | CC(=O)OO [Ac. Perac. 2.0%, peracetic acid] | 0% | 
110 | [Na+].[OH-] [NaOH 0.5%, sodium hydroxide] | 88% | 96%
111 | CC(=O)O [Ac. Ac. Glacial 1.0, glacial acetic acid] | 0% | 
112 | CC(=O)OO [Ac. Perac. 0.1%, peracetic acid] | 94% | 
113 | CCO [Alco. 10%, Alcohol] | 2% | 
114 | O=C([O-])O.[Na+] [NaHCO3 (0.25%), sodium bicarbonate] |  | 90%
115 | CC(=O)O [Ac. Ac. Glacial 0.25%, glacial acetic acid] | 64% | 
116 | CC(=O)O [Ac. Ac. Glacial 0.5, glacial acetic acid] | 8% | 
117 | CCO [Alco. 1%, Alcohol] | 72% | 
118 | O=P([O-])([O-])O.[Na+].[Na+] [Na2HPO4 (0.25%), sodium phosphate dibasic] |  | 98%

— US20030180385A1 (priority 2002, published 2003)
